Values of other authors, collected in patent US10208167B2, “Cyclodextrins with one or more poly(ethylene glycol) units, inclusion compounds and drug delivery vehicles including the same, and methods of making and using the same” (The Board of Trustees of the California State University, priority 2015, dated 2019).

Tests used:
[1] = test system: human salivary and pancreatic amylases

Compound | fermentation in the intestinal microflora (intestinal microflora) | hydrolysis by human salivary and pancreatic amylases [1]
OC[C@H]1O[C@@H]2O[C@H]3[C@H](O)[C@@H](O)[C@@H](O[C@H]4[C@H](O)[C@@H](O)[C@@H](O[C@H]5[C@H](O)[C@@H](O)[C@@H](O[C@H]6[C@H](O)[C@@H](O)[C@@H](O[C@H]7[C@H](O)[C@@H](O)[C@@H](O[C@H]1[C@H](O)[C@H]2O)O[C@@H]7CO)O[C@@H]6CO)O[C@@H]5CO)O[C@@H]4CO)O[C@@H]3CO [α-CD, α-cyclodextrin] | can be fermented | not hydrolyzed
OC[C@H]1O[C@@H]2O[C@H]3[C@H](O)[C@@H](O)[C@@H](O[C@H]4[C@H](O)[C@@H](O)[C@@H](O[C@H]5[C@H](O)[C@@H](O)[C@@H](O[C@H]6[C@H](O)[C@@H](O)[C@@H](O[C@H]7[C@H](O)[C@@H](O)[C@@H](O[C@H]8[C@H](O)[C@@H](O)[C@@H](O[C@H]9[C@H](O)[C@@H](O)[C@@H](O[C@H]1[C@H](O)[C@H]2O)O[C@@H]9CO)O[C@@H]8CO)O[C@@H]7CO)O[C@@H]6CO)O[C@@H]5CO)O[C@@H]4CO)O[C@@H]3CO [γ-CD, γ-cyclodextrin] | – | not hydrolyzed
